Data taken from patent US10710988B2, “Piperazine derivative” (Astellas Pharma Inc., priority 2016, dated 2020).
Structures can show the parent of a compound that is named as a salt.

Experiments:
Format in all cases: cell-based
human MC4 receptor = biological target: T1, human MC4 receptor (Homo sapiens, UniProt P32245); assay: Human MC4 receptor activation, cAMP production in cells transiently expressing the receptor; conditions: FreeStyle 293-F cells expressing human MC4 receptor, α-MSH maximum = 100%
T1 construct: expressed in transfected cells; host or cells: FreeStyle 293-F cells (transient, electroporation)
T1 sequence (P32245 whole entry): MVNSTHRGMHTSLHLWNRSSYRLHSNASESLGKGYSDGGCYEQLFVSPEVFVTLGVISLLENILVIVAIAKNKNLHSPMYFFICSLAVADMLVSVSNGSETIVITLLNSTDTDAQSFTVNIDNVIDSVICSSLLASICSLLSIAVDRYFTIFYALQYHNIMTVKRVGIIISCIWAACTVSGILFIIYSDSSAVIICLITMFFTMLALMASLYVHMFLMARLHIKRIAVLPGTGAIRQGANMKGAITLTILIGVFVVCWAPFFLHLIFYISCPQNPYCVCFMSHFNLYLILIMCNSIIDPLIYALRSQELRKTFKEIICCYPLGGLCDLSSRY
Source text: (§1) (1) Construction of Human MC Receptor-Expressing Vector
(§2) A human MC4 receptor gene (GenBank Accession No.: NM_005912.2), a human MC1 receptor gene (GenBank Accession No.: NM_002386.3), or a human MC3 receptor gene (GenBank Accession No.: NM_019888.3) was introduced into an expression vector pcDNA™ 3.1N/V5-His TOPO (registered trademark) (Thermo Fisher Scientific Inc).
(§3) (2) Construction of Cells Transiently Expressing Human MC Receptor
(§4) An expression vector for a human MC4, MC1, or MC3 receptor was introduced into FreeStyle™ 293-F cells (Thermo Fisher Scientific Inc., product number: R790-07). For the introduction, electroporation was employed. That is, 1×10^7 FreeStyle™ 293-F cells were suspended in 80 μL of an Electroporation Buffer (Thermo Fisher Scientific Inc., product number: B201-100), and 20 μg of the expression vector was added thereto. The resultant was put into a cuvette (OC-100 Processing Assembly, MaxCyte, Inc.) and electroporated with MaxCyte STX (registered trademark) (MaxCyte, Inc.). The cells were cultured for a day, suspended in a Cell Banker (registered trademark) 1 (TAKARA BIO INC. or JUJI FIELD Inc., product number: BLC-1), and stored frozen until they were used.
(§5) (3) Measurement of Amount of cAMP Production
(§6) Measurement was carried out by using a LANCE (registered trademark) Ultra cAMP Kit (PerkinElmer, Inc.) in accordance with the attached instructions. That is, after dissolution in DMSO, the test compound (a final concentration of 1 pM to 30 μM) diluted with an assay buffer (Hank's balanced salt solution, 5 mM 4-(2-hydroxyethyl)-1-piperazineethanesulfonic acid (HEPES), 0.5 mM 3-isobutyl-1-methylxanthine (IBMX), 0.1% bovine serum albumin, pH 7.4), or α-MSH (Bachem Inc., a final concentration of 1 pM to 30 μM) was added to OptiPlate-384 (PerkinElmer, Inc.). Furthermore, the suspension of the cells transiently expressing the human MC4, MC1, or MC3 receptor prepared using the assay buffer was added thereto at 1,000 cells/well, and then left to stand at room temperature for about 1 hour. Thereafter, an Eu-cAMP tracer solution and an ULight™-anti-cAMP solution were added thereto, and then the resulting solution was left to stand at room temperature for about 1 hour. The amount of cAMP was calculated using EnVision (registered trademark) (PerkinElmer Inc.).
(§7) For the agonistic activity, the efficacy (EC50 (μM)) was calculated by a non-linear regression method with a Sigmoid-Emax model, by defining the maximum reaction using α-MSH as 100% and the reaction using the vehicle alone as 0%, respectively.

human MC1 receptor = biological target: T2, human MC1 receptor (Homo sapiens, UniProt Q01726); assay: Human MC1 receptor activation, cAMP production in cells transiently expressing the receptor; conditions: FreeStyle 293-F cells expressing human MC1 receptor, α-MSH maximum = 100%
T2 construct: expressed in transfected cells; host or cells: FreeStyle 293-F cells (transient, electroporation)
T2 sequence (Q01726 whole entry): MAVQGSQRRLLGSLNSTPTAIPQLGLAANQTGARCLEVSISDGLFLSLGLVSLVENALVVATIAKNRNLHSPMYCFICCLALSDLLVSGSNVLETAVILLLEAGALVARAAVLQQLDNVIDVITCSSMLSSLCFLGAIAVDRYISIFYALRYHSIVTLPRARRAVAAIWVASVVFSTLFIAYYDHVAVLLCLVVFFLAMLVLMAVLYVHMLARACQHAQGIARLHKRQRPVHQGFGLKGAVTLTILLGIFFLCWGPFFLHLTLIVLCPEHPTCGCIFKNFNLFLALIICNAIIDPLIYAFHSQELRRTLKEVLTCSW
Source text: as §1, §2, §3, §4, §5, §6, §7

human MC3 receptor = biological target: T3, human MC3 receptor (Homo sapiens, UniProt P41968); assay: Human MC3 receptor activation, cAMP production in cells transiently expressing the receptor; conditions: FreeStyle 293-F cells expressing human MC3 receptor, α-MSH maximum = 100%
T3 construct: expressed in transfected cells; host or cells: FreeStyle 293-F cells (transient, electroporation)
T3 sequence (P41968 whole entry): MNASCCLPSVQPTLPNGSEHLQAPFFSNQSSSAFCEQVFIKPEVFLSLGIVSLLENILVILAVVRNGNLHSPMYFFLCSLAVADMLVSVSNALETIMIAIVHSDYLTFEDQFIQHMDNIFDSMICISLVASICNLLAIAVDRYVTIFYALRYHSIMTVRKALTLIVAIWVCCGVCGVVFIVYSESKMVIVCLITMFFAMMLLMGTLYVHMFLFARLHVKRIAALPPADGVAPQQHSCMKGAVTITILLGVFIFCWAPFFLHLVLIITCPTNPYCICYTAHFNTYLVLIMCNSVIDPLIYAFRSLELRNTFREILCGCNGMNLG
Source text: as §1, §2, §3, §4, §5, §6, §7

rat MC4 receptor = biological target: T4, rat MC4 receptor (Rattus norvegicus, UniProt P70596); assay: Rat MC4 receptor activation, cAMP production in cells transiently expressing the receptor; conditions: FreeStyle 293-F cells expressing rat MC4 receptor, α-MSH maximum = 100%
T4 construct: expressed in transfected cells; host or cells: FreeStyle 293-F cells (transient, electroporation)
T4 sequence (P70596 whole entry): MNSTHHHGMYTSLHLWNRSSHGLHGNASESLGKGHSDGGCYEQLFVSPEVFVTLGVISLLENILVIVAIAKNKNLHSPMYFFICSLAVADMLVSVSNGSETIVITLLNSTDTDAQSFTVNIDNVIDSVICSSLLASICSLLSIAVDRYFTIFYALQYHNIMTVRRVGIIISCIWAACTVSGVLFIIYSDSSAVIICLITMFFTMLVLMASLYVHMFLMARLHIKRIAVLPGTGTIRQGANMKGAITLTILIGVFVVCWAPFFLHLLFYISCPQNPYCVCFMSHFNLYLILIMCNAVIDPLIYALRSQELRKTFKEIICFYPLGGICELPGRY
Source text: (1) Construction of Rat MC4 Receptor-Expressing Vector
A rat MC4 receptor gene (GenBank Accession No.: NM_013099.3) was introduced into an expression vector pcDNA™ 3.1N/V5-His TOPO (registered trademark) (Thermo Fisher Scientific Inc.).
(2) Construction of Cells Transiently Expressing Rat MC4 Receptor
as §4, with “rat MC4” for “human MC4, MC1, or MC3”, “Inc.).” for “Inc., product number: R790-07).”, “electroporation buffer” for “Electroporation Buffer”, “Inc.),” for “Inc., product number: B201-100),”, “Inc.),” for “Inc., product number: BLC-1),”
as §5
Measurement was carried out in accordance with the attached instructions, using a LANCE (registered trademark) Ultra cAMP Kit (PerkinElmer, Inc.). That is, after dissolution in DMSO, the test compound (a final concentration of 1 pM to 30 μM) diluted with an assay buffer (Hank's balanced salt solution, 5 mM HEPES, 0.5 mM IBMX, 0.1% bovine serum albumin, pH 7.4), or α-MSH (Bachem Inc., a final concentration of 1 pM to 30 μM) was added to OptiPlate-384 (PerkinElmer, Inc.). Furthermore, the suspension of the cells transiently expressing the rat MC receptor that was prepared using the assay buffer was added thereto at 1,000 cells/well, and then left to stand at room temperature for about 1 hour. Thereafter, an Eu-cAMP tracer solution and an ULight™-anti-cAMP solution were added thereto, and the resulting solution was left to stand at room temperature for about 1 hour. The amount of cAMP was calculated using EnVision (registered trademark) (PerkinElmer Inc).
For the agonistic activity, an efficacy (EC50 (μM)) was calculated by a non-linear regression method with a Sigmoid-Emax model, by defining the maximum reaction using α-MSH as 100% and the reaction using a vehicle alone as 0%, respectively.

| Compound | EC50 (human MC4 receptor) [nM] | EC50 (human MC1 receptor) [nM] | EC50 (human MC3 receptor) [nM] | EC50 (rat MC4 receptor) [nM] |
| --- | --- | --- | --- | --- |
| CC(=O)N[C@@H](Cc1ccc(Cl)cc1)C(=O)N1CCN(C(=O)[C@@H]2CN(C(C)(C)C)C[C@H]2c2ccc(F)cc2F)[C@@H](C)C1 [Example 7] | 77 | 680 | 4400 | 15 |
| C[C@H]1CN(C(=O)[C@@H](NC(=O)C2CC2)C2CCCCC2)CCN1C(=O)[C@@H]1CN(C(C)(C)C)C[C@H]1c1ccc(F)cc1F [Example 9] | 89 | – | – | – |
| CC(=O)N(C)[C@H](C(=O)N1CCN(C(=O)[C@@H]2CN(C(C)(C)C)C[C@H]2c2ccc(F)cc2F)[C@@H](C)C1)C1CCCCC1 [Example 10] | 12 | – | – | – |
| COC[C@H]1CN(C(=O)[C@H](CC(C)C)NC(C)=O)CCN1C(=O)C1CN(C(C)(C)C)CC1c1ccc(Br)cc1F (stereo partly shown) [Example 12] | 14 | – | – | – |
| CCC(=O)N[C@@H](CC(C)(C)C)C(=O)N1CCN(C(=O)[C@@H]2CN(C3CCOCC3)C[C@H]2c2ccc(Cl)cc2F)CC12CC2 [Example 13] | 34 | – | – | – |
| CC(=O)N[C@H](C(=O)N1CCN(C(=O)[C@@H]2CN(C(C)(C)C)C[C@H]2c2ccc(F)cc2F)[C@@H](C)C1)C1CCCC1 [Example 15] | 220 | – | – | – |
| CC(=O)N[C@@H](Cc1cccc(F)c1)C(=O)N1CCN(C(=O)[C@@H]2CN(C(C)(C)C)C[C@H]2c2ccc(F)cc2F)[C@@H](C)C1 [Example 17] | 40 | – | – | – |
| CC(=O)N[C@@H](CC1CCC(C)(C)CC1)C(=O)N1CCN(C(=O)[C@@H]2CN(C(C)(C)C)C[C@H]2c2ccc(F)cc2F)[C@@H](C)C1 [Example 18, N-[(2S)-1-[(3S)-4-{[(3 S,4R)-1-tert-butyl-4-(2,4-difluorophenyl)pyrrolidin-3-yl]carbonyl}-3-methylpiperazin-1-yl]-3-(4,4-dimethylcyclohexyl)-1-oxopropan-2-yl]acetamide monohydrochloride] | 62 | – | – | – |
| CC(=O)N[C@@H](CC1CCC(F)(F)CC1)C(=O)N1CCN(C(=O)[C@@H]2CN(C(C)(C)C)C[C@H]2c2ccc(F)cc2F)[C@@H](C)C1 [Example 19] | 380 | – | – | – |
| CCC(=O)N[C@@H](CC(C)(C)C)C(=O)N1CCN(C(=O)[C@@H]2CN(C3CCOCC3)C[C@H]2c2ccc(Cl)cc2F)[C@@H](C)C1 [Example 21] | 130 | – | – | – |
| CC(=O)N[C@@H](Cc1ccccc1Cl)C(=O)N1CCN(C(=O)C2CN(C(C)(C)C)CC2c2cc(F)c(Cl)c(F)c2)[C@@H](C)C1 (stereo partly shown) [Example 22] | 180 | – | – | – |
| CC(=O)N[C@@H](CC(C)(C)C)C(=O)N1CCN(C(=O)C2CN(C(C)(C)C)CC2c2ccc(Cl)cn2)[C@@H](C)C1 (stereo partly shown) [Example 23] | 23 | 870 | 450 | 4.8 |
| CC(=O)N[C@@H](CC(C)(C)C)C(=O)N1CCN(C(=O)[C@@H]2CN(C(C)C)C[C@H]2c2ccc(F)cc2F)[C@@H](C)C1 [Example 24, N-{(2S)-1-[(3S)-4-{[(3S,4R)-4-(2,4-difluorophenyl)-1-isopropylpyrrolidin-3-yl]carbonyl}-3-methylpiperazin-1-yl]-4,4-dimethyl-1-oxopentan-2-yl}acetamide monohydrochloride] | 78 | 1500 | 6400 | 46 |
| CC(=O)N[C@@H](CC(C)(C)C)C(=O)N1CCN(C(=O)[C@@H]2CN(C3CCCCC3)C[C@H]2c2ccc(F)cc2F)[C@@H](C)C1 [Example 25] | 120 | – | – | – |
| CC(=O)N[C@@H](CC(C)(C)C)C(=O)N1CCN(C(=O)[C@@H]2CN(C)C[C@H]2c2ccc(F)cc2F)[C@@H](C)C1 [Example 26] | 5000 | – | – | – |
| CC(=O)N[C@@H](CC(C)(C)C)C(=O)N1CCN(C(=O)[C@@H]2CN(CC3CC3)C[C@H]2c2ccc(F)cc2F)[C@@H](C)C1 [Example 27] | 1000 | – | – | – |
| C[C@H]1CN(C(=O)[C@H](Cc2ccccc2Cl)N(C)C)CCN1C(=O)[C@@H]1CN(C(C)(C)C)C[C@H]1c1ccc(F)cc1F [Example 28, (2S)-1-[(3S)-4-{[(3 S,4R)-1-tert-butyl-4-(2,4-difluorophenyl)pyrrolidin-3-yl]carbonyl}-3-methylpiperazin-1-yl]-3-(2-chlorophenyl)-2-(dimethylamino)propan-1-one dihydrochloride] | 5.5 | – | – | – |
| CC(C)C[C@H](NS(C)(=O)=O)C(=O)N1CCN(C(=O)[C@@H]2CN(C3CCOCC3)C[C@H]2c2ccc(Cl)cc2F)[C@@H](C)C1 [Example 29, N-{(2S)-1-[(3S)-4-{[(3S,4R)-4-(4-chloro-2-fluorophenyl)-1-(tetrahydro-2H-pyran-4-yl)pyrrolidin-3-yl]carbonyl}-3-methylpiperazin-1-yl]-4-methyl-1-oxopentan-2-yl}methanesulfonamide monohydrochloride] | 280 | – | – | – |
| C[C@H]1CN(C(=O)[C@@H](N)C2CCCCC2)CCN1C(=O)[C@@H]1CN(C(C)(C)C)C[C@H]1c1ccc(F)cc1F [Example 30, (2S)-2-amino-1-[(3S)-4-{[(3S,4R)-1-tert-butyl-4-(2,4-difluorophenyl)pyrrolidin-3-yl]carbonyl}-3-methylpiperazin-1-yl]-2-cyclohexylethanone dihydrochloride] | 1800 | – | – | – |
